The record followed here is patent US20250353821A1, “BENZENE SULFONAMIDE THIAZOLE COMPOUNDS AND THEIR USE FOR THE TREATMENT OF CANCERS” (INSERM (INSTITUT NATIONAL DE LA SANTÉ ET DE LA RECHERCHE …, priority 2021, published 2025).

In series [1] the test system is A375 melanoma cells. Kind of series: Cell viability by cell counting, trypan blue exclusion method. Format: cell-based. Conditions: Homo sapiens, A-375, 48 h, percentage of cells alive relative to negative control DMSO (100%).
Another series in a line: Aqueous solubility. The format is physicochemical. Conditions: aqueous medium (not further specified), read-out: Solublity.
The test system of series [2] is A375 melanoma cells. Kind of series: IC50 determination in A375 cells, blue trypan exclusion. Format: cell-based, human. Conditions: Homo sapiens, A-375; A375, serum free, 24 h.

The structures appear in SMILES notation. Values after ≈ are worked out from the molar mass of the structure shown.

On to `CN(C)c1cccc2c(S(=O)(=O)Nc3cccc(-c4csc(NC(=O)CNCCCN5CCOCC5)n4)c3)cccc12` [PB644, N-(4-(3-((5-(dimethylamino)naphthalene)-1-sulfonamido)phenyl)thiazol-2-yl)-2-((3-morpholinopropyl)amino)acetamide], for which, in the series on A375 melanoma cells [1], the viability (as a rule, a read-out of living cells in per cent, often relative to untreated cells) at 1 µM came out at 83.3 ± 23.6%; the viability at 5 µM is 11.7 ± 1.2%; the viability at 10 µM was 8%.
As to `COCCOc1ccc(-c2csc(NC(C)=O)n2)cc1NS(=O)(=O)c1cccc2c(N(C)C)cccc12` [PB603, N-(4-(3-((5-(dimethylamino)naphthalene)-1-sulfonamido)-4-(2-methoxyethoxy)phenyl)thiazol-2-yl)acetamide], the viability at 10 µM in the series with A375 melanoma cells [1] stood at 43.1 ± 8.7%.
As to `CN(C)c1cccc2c(S(=O)(=O)Nc3cccc(-c4csc(NC(=O)COCC(O)CO)n4)c3)cccc12` (centres unmarked) [PB605, 2-(2,3-dihydroxypropoxy)-N-(4-(3-((5-(dimethylamino)naphthalene)-1-sulfonamido)phenyl)thiazol-2-yl)acetamide], the solubility in the series “Aqueous solubility” came out at 2.8 ± 0.5 µM (≈ 1.56 µg/mL). Moreover, in the series with A375 melanoma cells [1], the viability at 1 µM is 64.5 ± 4.3%, the viability at 5 µM was found to be 29.4 ± 9.8% and the viability at 10 µM is 6.4 ± 0.6%.
In the case of `CCCCCc1ccc(S(=O)(=O)Nc2cccc(-c3csc(N4CCN(C)CC4)n3)c2)cc1` [PB707, N-(3-(2-(4-methylpiperazin-1-yl)thiazol-4-yl)phenyl)-4-pentylbenzenesulfonamide], inhibition in the series on A375 melanoma cells [2] was half-maximal at 2.5 µM (IC50). In other words, the single-digit micromolar range.
With `COCCOc1ccc(-c2csc(NC(=O)CN3CCN(CCO)CC3)n2)cc1NS(=O)(=O)c1cccc2c(N(C)C)cccc12` [PB604, N-(4-(3-((5-(dimethylamino)naphthalene)-1-sulfonamido)-4-(2-methoxyethoxy)phenyl)thiazol-2-yl)-2-(4-(2-hydroxyethyl)piperazin-1-yl)acetamide], the solubility in “Aqueous solubility” was found to be 4.1 ± 0.4 µM (≈ 2.74 µg/mL). Moreover, in the series on A375 melanoma cells [1], the viability at 1 µM was 57.7 ± 16.5%, the viability at 5 µM came to 19 ± 8.6% and the viability at 10 µM was 16.3 ± 9.8%.
Consider `CN(C)c1cccc2c(S(=O)(=O)Nc3cccc(-c4csc(NC(=O)CNCCS(=O)(=O)O)n4)c3)cccc12` [PB654, 2-((2-((4-(3-((5-(dimethylamino)naphthalene)-1-sulfonamido)phenyl)thiazol-2-yl)amino)-2-oxoethyl)amino)ethane-1-sulfonic], for which the solubility in the series “Aqueous solubility” was 88 ± 3 µM (≈ 51.9 µg/mL). For the same compound, in the series with A375 melanoma cells [1], the viability at 5 µM amounted to 89.4 ± 6.5% and the viability at 10 µM worked out at 70 ± 13.8%.
On to `COc1ccc(-c2csc(NC(=O)CN3CCN(CCO)CC3)n2)cc1NS(=O)(=O)c1cccc2c(N(C)C)cccc12` [PB602, N-(4-(3-((5-(dimethylamino)naphthalene)-1-sulfonamido)-4-methoxyphenyl)thiazol-2-yl)-2-(4-(2-hydroxyethyl)piperazin-1-yl)acetamide], for which the solubility in “Aqueous solubility” was 3.4 ± 0.7 µM (≈ 2.12 µg/mL). Besides, in the series with A375 melanoma cells [1], the viability at 1 µM was found to be 47.6 ± 2.4%, the viability at 5 µM was 1.7 ± 0.9% and the viability at 10 µM amounted to 1 ± 1%.
With `CCOP(=O)(NCC(=O)Nc1nc(-c2cccc(NS(=O)(=O)c3cccc4c(N(C)C)cccc34)c2)cs1)OCC` [PB649, Diethyl-(2-((4-(3-((5-(dimethylamino)naphthalene)-1-sulfonamido)phenyl)thiazol-2-yl)amino)-2-oxoethyl)phosphoramidate], in the series on A375 melanoma cells [1], the viability at 5 µM amounted to 77.7 ± 19.8% and the viability at 10 µM came out at 26.4 ± 4.5%.
For `CCOC(=O)CCCC(=O)Nc1nc(-c2cccc(NS(=O)(=O)c3cccc4c(N(C)C)cccc34)c2)cs1` [PB625, Ethyl 5-((4-(3-((5-(dimethylamino)naphthalene)-1-sulfonamido)phenyl)thiazol-2-yl)amino)-5-oxopentanoate], in the series with A375 melanoma cells [1], the viability at 5 µM is 93 ± 3% and the viability at 10 µM came out at 36.5 ± 7.5%.
For the compound `CCCCCc1ccc(S(=O)(=O)Nc2cccc(-c3csc(N4CCN(CCO)CC4)n3)c2)cc1` [PB708, N-(3-(2-(4-(2-hydroxyethyl)piperazin-1-yl)thiazol-4-yl)phenyl)-4-pentylbenzenesulfonamide], in the series with A375 melanoma cells [2], the IC50 (usually the concentration at which inhibition is half-maximal) is 2.5 µM.
The compound `CN1CCN(CCCCCC(=O)Nc2nc(-c3cccc(NS(=O)(=O)c4cccc5c(N(C)C)cccc45)c3)cs2)CC1` [PB697, N-(4-(3-((5-(dimethylamino)naphthalene)-1-sulfonamido)phenyl)thiazol-2-yl)-6-(4-methylpiperazin-1-yl)hexanamide] displayed a half-inhibitory concentration (IC50) in the series on A375 melanoma cells [2] of 2 µM. The IC50 values of the last two compounds are within 1.5-fold of each other.
On to `Cc1nc(-c2cccc(NS(=O)(=O)c3cccc4c(N(C)C)cccc34)c2)cs1` [PB635, 5-(dimethylamino)-N-(3-(2-methylthiazol-4-yl)phenyl)naphthalene-1-sulfonamide], for which, in the series with A375 melanoma cells [1], the viability at 5 µM was 47 ± 13.5% and the viability at 10 µM is 46.9 ± 4.4%.
Turning to `CN(C)c1cccc2c(S(=O)(=O)Nc3cccc(-c4csc(NC(=O)CN5CCOCC5)n4)c3)cccc12` [PB639, N-(4-(3-((5-(dimethylamino)naphthalene)-1-sulfonamido)phenyl)thiazol-2-yl)-2-morpholinoacetamide], in the series with A375 melanoma cells [1], the viability at 1 µM turned out to be 100 ± 23.6%, the viability at 5 µM is 63.5 ± 16% and the viability at 10 µM is 24%.
As to `CC(=O)Nc1nc(-c2ccc(F)c(NS(=O)(=O)c3cccc4c(N(C)C)cccc34)c2)cs1` [PB651, N-(4-(3-((5-(dimethylamino)naphthalene)-1-sulfonamido)-4-fluorophenyl)thiazol-2-yl)acetamide], in the series with A375 melanoma cells [1], the viability at 5 µM stood at 89.4 ± 5.6% and the viability at 10 µM turned out to be 25 ± 8.1%.
With `CN(C)c1cccc2c(S(=O)(=O)Nc3cccc(-c4csc(NC(=O)CCCCCNC(=O)OC(C)(C)C)n4)c3)cccc12` [PB624, Tert-butyl(6-((4-(3-((5-(dimethylamino)naphthalene)-1-sulfonamido)phenyl)thiazol-2-yl)amino)-6-oxohexyl)carbamate], in the series with A375 melanoma cells [1], the viability at 5 µM turned out to be 87.8 ± 16.2% and the viability at 10 µM was 33.3 ± 5.5%.
For the compound `CN(C)c1cccc2c(S(=O)(=O)Nc3cccc(-c4csc(NC(=O)CN5CCC(C(N)=O)CC5)n4)c3)cccc12` [PB641, 1-(2-((4-(3-((5-(dimethylamino)naphthalene)-1-sulfonamido)phenyl)thiazol-2-yl)amino)-2-oxoethyl)piperidine-4-carboxamide], in the series with A375 melanoma cells [1], the viability at 1 µM was determined as 104 ± 5.9%, the viability at 5 µM was 105 ± 18.9% and the viability at 10 µM is 40%.
In the series with A375 melanoma cells [2], `CN(C)c1cccc2c(S(=O)(=O)Nc3cccc(-c4csc(NC(=O)CCCCCN5CCN(CCO)CC5)n4)c3)cccc12` [PB698, N-(4-(3-((5-(dimethylamino)naphthalene)-1-sulfonamido)phenyl)thiazol-2-yl)-6-(4-(2-hydroxyethyl)piperazin-1-yl)hexanamide] yielded an IC50 of 1.75 µM. This lies in the single-digit micromolar range.
Take `COc1ccc(-c2csc(NC(C)=O)n2)cc1NS(=O)(=O)c1cccc2c(N(C)C)cccc12` [PB600, N-(4-(3-((5-(dimethylamino)naphthalene)-1-sulfonamido)-4-methoxyphenyl)thiazol-2-yl)acetamide]: the viability at 10 µM with A375 melanoma cells [1] amounted to 48.8 ± 4.3%.
`CN(C)c1cccc2c(S(=O)(=O)Nc3cccc(-c4csc(NC(=O)CCCNC(=O)OC(C)(C)C)n4)c3)cccc12` [PB631, Tert-butyl (4-((4-(3-((5-(dimethylamino)naphthalene)-1-sulfonamido)phenyl)thiazol-2-yl)amino)-4-oxobutyl)carbamate]: in the series with A375 melanoma cells [1], the viability at 5 µM came out at 31.3 ± 4.9% and the viability at 10 µM was found to be 35.4 ± 14.2%.
Regarding `CC(=O)NCCCC(=O)Nc1nc(-c2cccc(NS(=O)(=O)c3cccc4c(N(C)C)cccc34)c2)cs1` [PB633], in the series on A375 melanoma cells [1], the viability at 5 µM came to 65.2 ± 9.9% and the viability at 10 µM turned out to be 43.8 ± 12.7%.
